{"source": "ChEMBL document CHEMBL1201862", "about": "“PubChem BioAssay data set” (2004)", "key": {"[1]": {"target": "T1, Short transient receptor potential channel 4 (Mus musculus, UniProt Q9QUQ5)", "T1 sequence (Q9QUQ5 whole entry)": "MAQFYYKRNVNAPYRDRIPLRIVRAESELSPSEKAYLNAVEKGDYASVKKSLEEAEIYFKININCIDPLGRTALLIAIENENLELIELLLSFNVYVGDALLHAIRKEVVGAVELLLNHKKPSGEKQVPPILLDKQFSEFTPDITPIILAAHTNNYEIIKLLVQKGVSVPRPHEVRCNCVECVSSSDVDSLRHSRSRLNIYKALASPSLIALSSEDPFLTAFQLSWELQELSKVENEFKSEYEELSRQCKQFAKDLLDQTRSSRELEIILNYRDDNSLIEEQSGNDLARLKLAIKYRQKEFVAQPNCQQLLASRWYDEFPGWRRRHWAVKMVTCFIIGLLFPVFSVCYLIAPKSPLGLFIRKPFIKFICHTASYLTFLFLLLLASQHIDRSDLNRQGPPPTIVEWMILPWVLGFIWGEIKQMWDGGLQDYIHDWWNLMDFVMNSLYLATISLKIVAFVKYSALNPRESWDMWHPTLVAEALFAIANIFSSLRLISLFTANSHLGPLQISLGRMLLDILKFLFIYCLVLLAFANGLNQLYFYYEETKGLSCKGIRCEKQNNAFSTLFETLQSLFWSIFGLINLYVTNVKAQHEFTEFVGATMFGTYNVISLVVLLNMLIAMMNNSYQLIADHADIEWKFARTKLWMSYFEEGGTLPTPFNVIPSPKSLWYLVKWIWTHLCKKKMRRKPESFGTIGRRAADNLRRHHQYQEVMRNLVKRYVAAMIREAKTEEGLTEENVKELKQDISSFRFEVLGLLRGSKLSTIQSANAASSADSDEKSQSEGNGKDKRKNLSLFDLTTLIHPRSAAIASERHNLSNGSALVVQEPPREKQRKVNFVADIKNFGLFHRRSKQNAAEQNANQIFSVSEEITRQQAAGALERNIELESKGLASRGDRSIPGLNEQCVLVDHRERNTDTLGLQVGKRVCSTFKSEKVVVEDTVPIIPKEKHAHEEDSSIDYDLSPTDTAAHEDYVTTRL", "test": "calcium entry via TRPC4 opening agents – cell-based, HEK293 TRPC4/mu-opioid, Fluo-4 calcium, dose response (AID 434937)", "assay_type": "functional"}, "Kallikrein-7": {"target": "Kallikrein-7 (Homo sapiens, UniProt P49862)", "sequence (P49862 whole entry)": "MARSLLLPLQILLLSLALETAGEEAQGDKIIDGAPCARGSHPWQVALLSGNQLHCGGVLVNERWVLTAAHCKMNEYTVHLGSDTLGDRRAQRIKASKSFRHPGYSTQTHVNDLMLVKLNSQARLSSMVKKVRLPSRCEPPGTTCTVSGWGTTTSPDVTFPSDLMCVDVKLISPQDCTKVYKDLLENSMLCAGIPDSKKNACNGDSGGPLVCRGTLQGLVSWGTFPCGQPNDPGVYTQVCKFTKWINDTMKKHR", "test": "Fluorescence Intensity-based biochemical primary high throughput dose response assay to identify activators of kallikrein-7 (K7) zymogen."}, "[2]": {"target": "T2, Polyadenylate-binding protein 1 (Homo sapiens, UniProt P11940)", "T2 sequence (P11940 whole entry)": "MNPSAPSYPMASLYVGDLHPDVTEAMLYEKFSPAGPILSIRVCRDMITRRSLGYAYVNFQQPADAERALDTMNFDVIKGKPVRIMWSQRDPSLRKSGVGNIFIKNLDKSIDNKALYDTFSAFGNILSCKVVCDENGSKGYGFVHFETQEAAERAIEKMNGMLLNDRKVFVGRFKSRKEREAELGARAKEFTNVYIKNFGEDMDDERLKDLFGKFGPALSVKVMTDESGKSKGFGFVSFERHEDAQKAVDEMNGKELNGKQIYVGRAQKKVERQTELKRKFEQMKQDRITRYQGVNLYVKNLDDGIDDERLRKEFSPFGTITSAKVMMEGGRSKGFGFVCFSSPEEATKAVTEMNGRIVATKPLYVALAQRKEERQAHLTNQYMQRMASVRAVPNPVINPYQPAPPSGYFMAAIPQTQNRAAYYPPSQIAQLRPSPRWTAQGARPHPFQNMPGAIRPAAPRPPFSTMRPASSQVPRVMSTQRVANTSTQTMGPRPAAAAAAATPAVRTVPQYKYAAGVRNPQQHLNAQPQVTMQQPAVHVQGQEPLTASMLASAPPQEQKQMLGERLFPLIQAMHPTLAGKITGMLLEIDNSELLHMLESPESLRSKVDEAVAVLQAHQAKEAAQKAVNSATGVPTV", "test": "MLLE binding blockers, Cy5 peptide tracer – biochemical, fluorescence polarization, Cy5-PAM2 peptide, secondary, miRNA deadenylation inhibitor project, dose response (AID 602260)", "assay_type": "functional", "details": "read-out: IC50_Mean"}, "[3]": {"target": "T2, Polyadenylate-binding protein 1", "test": "MLLE domain peptide-binding blockers, IC50 – biochemical, fluorescence polarization, FITC-PAM2 peptide, dose response (AID 602259)", "assay_type": "functional", "details": "read-out: IC50_Mean"}, "[4]": {"target": "Eukaryotic translation initiation factor 4E (Mus musculus, UniProt P63073)", "sequence (P63073 whole entry)": "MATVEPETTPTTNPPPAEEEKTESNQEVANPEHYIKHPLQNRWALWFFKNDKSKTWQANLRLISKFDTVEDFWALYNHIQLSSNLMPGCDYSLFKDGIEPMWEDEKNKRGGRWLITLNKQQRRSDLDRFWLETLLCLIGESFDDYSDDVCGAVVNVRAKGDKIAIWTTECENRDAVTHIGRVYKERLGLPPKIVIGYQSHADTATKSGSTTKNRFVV", "test": "blockers of eIF4G binding by eIF4E – biochemical, TR-FRET, dose response (AID 855);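 further: potency for disrupting eIF4E binding to eIF4GI seen as loss of FRET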", "assay_type": "functional"}, "[5]": {"test": "OVCAR8 cell viability loss – plate reader, dry powder samples, PAX8 project, dose response (AID 743197)", "assay_type": "functional, cell-based", "details": "OVCAR-8"}, "[6]": {"test": "OVCAR-3 cell viability loss – plate reader, dry powder samples, PAX8 inhibitor project, dose response (AID 743044)", "assay_type": "functional, cell-based"}, "Paired box protein Pax-8": {"target": "Paired box protein Pax-8 (Homo sapiens, UniProt Q06710)", "sequence (Q06710 whole entry)": "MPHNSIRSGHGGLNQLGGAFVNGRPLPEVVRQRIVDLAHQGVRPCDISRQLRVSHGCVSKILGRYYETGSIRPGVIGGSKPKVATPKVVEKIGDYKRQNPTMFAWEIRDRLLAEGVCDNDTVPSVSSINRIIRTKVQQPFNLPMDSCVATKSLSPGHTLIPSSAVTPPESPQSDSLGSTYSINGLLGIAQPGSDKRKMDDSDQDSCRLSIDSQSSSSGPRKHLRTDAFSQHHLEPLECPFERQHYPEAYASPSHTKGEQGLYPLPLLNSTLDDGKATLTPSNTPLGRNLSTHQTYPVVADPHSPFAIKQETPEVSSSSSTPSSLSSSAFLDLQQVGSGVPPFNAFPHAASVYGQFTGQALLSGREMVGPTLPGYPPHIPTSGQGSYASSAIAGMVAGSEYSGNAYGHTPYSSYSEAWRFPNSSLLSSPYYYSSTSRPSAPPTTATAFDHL", "test": "PAX8 transcriptional activity inhibition in RMG-I – RMG-I cells, luciferase, cherry-pick, dose response (AID 687027);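 further: luciferase reporter driven by Pax8 target thyroperoxidase promoter measured by SteadyGlo luminescence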", "assay_type": "functional, cell-based"}, "[7]": {"test": "viability of PTEN-deleted HCT116 cells – cell-based, HCT116 PTEN knockout, dose response (AID 1047);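 further: cells exposed to compound for 60 hours before readout; potency for loss of cell viability measured by luminescence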", "assay_type": "functional"}, "[8]": {"test": "viability of HCT116 lacking mutant beta-catenin – cell-based, human colon tumor, dose response (AID 1045);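 further: cells exposed to compound for 60 hours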", "assay_type": "functional"}, "[9]": {"target": "T3, Corticotropin-releasing factor receptor 2/Corticotropin-releasing factor-binding protein (Homo sapiens, UniProt P24387+Q13324)", "T3 sequence (Q13324 whole entry)": "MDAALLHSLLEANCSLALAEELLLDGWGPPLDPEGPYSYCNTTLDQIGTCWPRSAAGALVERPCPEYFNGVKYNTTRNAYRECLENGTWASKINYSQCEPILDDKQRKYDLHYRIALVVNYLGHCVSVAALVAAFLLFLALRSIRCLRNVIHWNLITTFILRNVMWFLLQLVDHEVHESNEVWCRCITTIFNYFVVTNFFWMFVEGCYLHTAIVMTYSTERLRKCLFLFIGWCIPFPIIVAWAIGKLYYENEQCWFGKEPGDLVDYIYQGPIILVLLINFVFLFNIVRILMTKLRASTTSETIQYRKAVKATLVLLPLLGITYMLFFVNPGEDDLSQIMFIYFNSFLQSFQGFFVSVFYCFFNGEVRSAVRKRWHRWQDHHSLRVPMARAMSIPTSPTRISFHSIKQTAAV", "T3 sequence (P24387 whole entry)": "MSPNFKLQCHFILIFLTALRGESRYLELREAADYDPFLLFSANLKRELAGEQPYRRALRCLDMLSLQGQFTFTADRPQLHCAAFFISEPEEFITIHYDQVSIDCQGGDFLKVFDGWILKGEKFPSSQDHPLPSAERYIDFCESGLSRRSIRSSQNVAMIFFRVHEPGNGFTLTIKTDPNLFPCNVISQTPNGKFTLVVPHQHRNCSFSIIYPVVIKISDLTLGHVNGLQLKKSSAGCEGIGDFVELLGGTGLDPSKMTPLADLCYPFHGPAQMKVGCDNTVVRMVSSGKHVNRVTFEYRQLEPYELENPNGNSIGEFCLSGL", "test": "Dose Response confirmation of uHTS hits for small molecule antagonists of the CRF-binding protein and CRF-R2 receptor complex.", "assay_type": "functional", "details": "read-out: IC50_Mean"}, "Aminopeptidase N": {"target": "T4, Aminopeptidase N (Plasmodium falciparum FcB1/Columbia, UniProt O96935)", "T4 sequence (O96935 whole entry)": "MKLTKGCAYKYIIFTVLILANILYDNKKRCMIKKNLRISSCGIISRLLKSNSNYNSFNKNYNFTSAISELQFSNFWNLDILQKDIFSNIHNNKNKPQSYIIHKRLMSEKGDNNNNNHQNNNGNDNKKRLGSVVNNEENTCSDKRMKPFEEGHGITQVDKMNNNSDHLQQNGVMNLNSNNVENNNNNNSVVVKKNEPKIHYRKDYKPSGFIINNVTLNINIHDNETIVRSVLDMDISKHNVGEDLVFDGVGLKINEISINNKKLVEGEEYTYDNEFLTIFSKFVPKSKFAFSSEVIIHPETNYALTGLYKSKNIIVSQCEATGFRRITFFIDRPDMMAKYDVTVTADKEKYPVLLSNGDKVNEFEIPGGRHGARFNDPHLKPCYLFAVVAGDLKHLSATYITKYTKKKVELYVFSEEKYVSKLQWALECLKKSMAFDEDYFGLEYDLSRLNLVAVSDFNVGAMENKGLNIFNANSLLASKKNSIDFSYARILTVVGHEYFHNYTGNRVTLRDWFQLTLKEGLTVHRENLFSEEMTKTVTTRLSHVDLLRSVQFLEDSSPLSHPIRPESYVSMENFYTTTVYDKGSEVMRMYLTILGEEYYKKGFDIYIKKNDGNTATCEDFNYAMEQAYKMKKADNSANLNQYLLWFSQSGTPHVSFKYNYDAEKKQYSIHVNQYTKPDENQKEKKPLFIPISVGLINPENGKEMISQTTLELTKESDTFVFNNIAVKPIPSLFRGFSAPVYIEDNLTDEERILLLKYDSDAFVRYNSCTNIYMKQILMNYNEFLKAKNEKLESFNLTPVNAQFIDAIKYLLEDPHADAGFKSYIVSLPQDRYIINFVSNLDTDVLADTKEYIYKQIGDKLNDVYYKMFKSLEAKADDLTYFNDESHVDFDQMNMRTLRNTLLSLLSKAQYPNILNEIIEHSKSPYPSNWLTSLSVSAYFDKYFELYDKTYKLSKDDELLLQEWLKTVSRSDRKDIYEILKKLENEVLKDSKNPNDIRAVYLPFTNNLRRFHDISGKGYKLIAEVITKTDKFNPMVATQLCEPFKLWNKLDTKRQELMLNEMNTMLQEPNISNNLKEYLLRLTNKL", "test": "malaria alanyl aminopeptidase activity blockers – biochemical, fluorogenic H-Leu-NHMec substrate, 1536-well (AID 1445)", "set-up": "species or system Plasmodium falciparum 3D7, 3D7"}, "[10]": {"test": "blockers of CRF-binding protein–CRF-R2 complex – cell-based, uHTS hits, 384-well, dose response (AID 651639)", "assay_type": "functional, Homo sapiens", "details": "read-out: IC50_Mean"}, "[11]": {"target": "T3, Corticotropin-releasing factor receptor 2/Corticotropin-releasing factor-binding protein", "test": "activators of CRF receptor 2 with binding protein – uHTS hits, confirmation (AID 602473)", "assay_type": "functional", "details": "read-out: EC50_Mean"}, "[12]": {"target": "Voltage-dependent T-type calcium channel subunit alpha-1H (Homo sapiens, UniProt O95180)", "sequence (O95180 whole entry)": "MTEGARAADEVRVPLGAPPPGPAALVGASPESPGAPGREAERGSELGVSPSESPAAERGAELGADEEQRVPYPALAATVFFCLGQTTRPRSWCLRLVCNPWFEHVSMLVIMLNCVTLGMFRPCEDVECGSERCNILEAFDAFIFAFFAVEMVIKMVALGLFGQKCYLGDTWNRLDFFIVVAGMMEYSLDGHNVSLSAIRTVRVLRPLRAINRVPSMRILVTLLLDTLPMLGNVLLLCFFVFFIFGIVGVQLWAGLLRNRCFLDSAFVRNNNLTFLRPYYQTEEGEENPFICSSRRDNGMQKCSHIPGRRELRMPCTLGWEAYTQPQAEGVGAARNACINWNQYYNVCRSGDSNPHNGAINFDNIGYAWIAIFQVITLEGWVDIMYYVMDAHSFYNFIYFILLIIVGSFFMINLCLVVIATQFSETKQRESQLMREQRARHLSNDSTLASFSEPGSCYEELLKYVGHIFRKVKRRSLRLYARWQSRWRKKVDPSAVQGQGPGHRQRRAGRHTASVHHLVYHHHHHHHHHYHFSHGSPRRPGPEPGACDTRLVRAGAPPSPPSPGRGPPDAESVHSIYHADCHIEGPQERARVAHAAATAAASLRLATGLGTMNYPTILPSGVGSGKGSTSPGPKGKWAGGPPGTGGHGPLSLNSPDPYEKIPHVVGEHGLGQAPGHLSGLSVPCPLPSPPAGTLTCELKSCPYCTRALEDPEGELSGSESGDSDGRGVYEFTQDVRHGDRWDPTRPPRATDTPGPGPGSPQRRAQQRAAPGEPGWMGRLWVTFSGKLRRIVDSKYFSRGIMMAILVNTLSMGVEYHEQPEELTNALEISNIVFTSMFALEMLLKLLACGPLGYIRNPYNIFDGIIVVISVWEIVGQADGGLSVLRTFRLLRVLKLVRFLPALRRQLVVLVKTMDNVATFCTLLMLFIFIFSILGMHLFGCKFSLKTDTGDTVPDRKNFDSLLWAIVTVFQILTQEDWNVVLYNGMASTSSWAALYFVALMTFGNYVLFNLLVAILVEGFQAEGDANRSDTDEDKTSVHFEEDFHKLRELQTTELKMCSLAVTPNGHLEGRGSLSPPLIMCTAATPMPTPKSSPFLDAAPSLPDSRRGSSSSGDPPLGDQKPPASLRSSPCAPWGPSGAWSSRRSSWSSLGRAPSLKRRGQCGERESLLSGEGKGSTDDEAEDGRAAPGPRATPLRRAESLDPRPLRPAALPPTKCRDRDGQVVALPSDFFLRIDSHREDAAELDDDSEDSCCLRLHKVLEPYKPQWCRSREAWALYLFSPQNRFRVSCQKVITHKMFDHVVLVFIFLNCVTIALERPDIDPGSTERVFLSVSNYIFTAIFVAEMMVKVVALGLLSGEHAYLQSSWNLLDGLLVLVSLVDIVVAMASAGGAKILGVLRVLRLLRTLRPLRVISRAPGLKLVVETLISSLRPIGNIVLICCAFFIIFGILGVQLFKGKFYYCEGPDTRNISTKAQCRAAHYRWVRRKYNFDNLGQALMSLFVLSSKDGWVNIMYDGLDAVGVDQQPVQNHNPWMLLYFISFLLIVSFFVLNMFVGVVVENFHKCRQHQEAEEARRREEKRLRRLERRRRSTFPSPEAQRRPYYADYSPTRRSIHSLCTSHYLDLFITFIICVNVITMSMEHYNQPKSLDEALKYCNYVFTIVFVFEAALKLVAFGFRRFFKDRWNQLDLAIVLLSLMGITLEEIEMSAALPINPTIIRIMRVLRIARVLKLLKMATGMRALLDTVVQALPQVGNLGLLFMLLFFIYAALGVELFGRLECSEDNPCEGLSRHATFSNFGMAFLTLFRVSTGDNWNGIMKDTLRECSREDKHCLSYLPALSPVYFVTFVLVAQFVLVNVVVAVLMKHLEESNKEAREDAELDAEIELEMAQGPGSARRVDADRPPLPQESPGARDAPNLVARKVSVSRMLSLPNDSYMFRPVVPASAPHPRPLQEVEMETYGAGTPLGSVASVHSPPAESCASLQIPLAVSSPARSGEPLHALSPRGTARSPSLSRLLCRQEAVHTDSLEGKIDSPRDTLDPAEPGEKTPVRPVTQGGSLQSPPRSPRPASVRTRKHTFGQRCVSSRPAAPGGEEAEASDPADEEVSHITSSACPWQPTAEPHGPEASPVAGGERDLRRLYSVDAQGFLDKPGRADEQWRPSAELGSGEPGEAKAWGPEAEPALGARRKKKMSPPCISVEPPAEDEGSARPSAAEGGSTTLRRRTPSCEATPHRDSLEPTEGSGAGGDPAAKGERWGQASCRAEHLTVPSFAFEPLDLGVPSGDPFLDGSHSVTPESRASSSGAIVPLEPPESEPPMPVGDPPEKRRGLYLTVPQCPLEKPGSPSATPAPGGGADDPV", "assay_type": "functional"}}, "note": "Active and inactive are the calls of the source."}
{"smiles": "CCOC(=O)c1oc2ccc(OC)cc2c1NC(=O)CN1CCN(C)CC1", "values": [{"measurement": "EC50", "setting": "[1]", "value": "1.06 µM (active)"}]}
{"smiles": "CN1C=CC2=C(C#N)C(N)C(C#N)(C#N)[C@H](c3ccccc3)[C@H]2C1", "note": "(some centres not stated)", "values": [{"measurement": "EC50", "setting": "Kallikrein-7", "value": "> 69.5 µM (inactive)"}, {"measurement": "IC50", "setting": "[2]", "value": "> 66 µM (inactive)"}, {"measurement": "IC50", "setting": "[3]", "value": "58.9 µM (inactive)"}]}
{"smiles": "CC1=C(C#N)C(c2cccnc2)C2=C(O)CC(C)(C)CC2=N1", "note": "(configuration not stated)", "values": [{"measurement": "EC50", "setting": "Kallikrein-7", "value": "> 69.5 µM (inactive)"}]}
{"smiles": "Cc1cc(C)n(-c2nnc3n2N=C(c2ccccc2)CS3)n1", "values": [{"measurement": "IC50", "setting": "[4]", "value": "> 64 µM (inactive)"}]}
{"smiles": "O=C(Nc1ccccc1)N1CCCCN2[C@H](C1)[C@@H](c1ccc(C#Cc3ccccc3)cc1)[C@@H]2CO", "values": [{"measurement": "AC50", "setting": "[5]", "value": "26 µM (active)"}, {"measurement": "AC50", "setting": "[6]", "value": "26 µM (active)"}, {"measurement": "AC50", "setting": "Paired box protein Pax-8", "value": "10.5 µM (active)"}]}
{"smiles": "CCOC(=O)c1c(CSC(=N)N)n(-c2ccc(Br)cc2)c2cc(Br)c(OC(C)=O)cc12", "values": [{"measurement": "EC50", "setting": "[7]", "value": "16.1 µM (active)"}, {"measurement": "IC50", "setting": "[4]", "value": "> 64 µM (inactive)"}, {"measurement": "EC50", "setting": "[8]", "value": "14.3 µM (active)"}]}
{"smiles": "CCCN(CCC)CCCNC(=O)c1ccc2c(Cl)c3c(nc2c1)CCC3", "values": [{"measurement": "EC50", "setting": "[1]", "value": "0.0107 µM (active)"}]}
{"smiles": "Cc1sc(NC(=O)Cn2nc(C(F)(F)F)cc2C)c(C(=O)OC(C)C)c1C", "values": [{"measurement": "IC50", "setting": "[4]", "value": "> 64 µM (inactive)"}]}
{"smiles": "COc1ccc(O)c(/C=C(\\C#N)C(=O)Nc2cccnc2)c1", "values": [{"measurement": "IC50", "setting": "[4]", "value": "> 64 µM (inactive)"}]}
{"smiles": "Cc1oc(-c2ccccc2Cl)nc1C[S+]([O-])CC(=O)NCCCN1CC(C)CC(C)C1", "note": "(configuration not stated)", "values": [{"measurement": "EC50", "setting": "[1]", "value": "0.299 µM (active)"}]}
{"smiles": "CC(C)N1C(=O)S/C(=C/c2ccccc2OCc2ccc(C(=O)O)cc2)C1=O", "values": [{"measurement": "IC50", "setting": "[9]", "value": "25.5 µM (active)"}, {"measurement": "IC50", "setting": "Aminopeptidase N", "value": "38.1 µM (active)"}, {"measurement": "IC50", "setting": "[10]", "value": "> 20 µM (inactive)"}, {"measurement": "EC50", "setting": "[11]", "value": "> 53 µM (inactive)"}]}
{"smiles": "CCN(CC)S(=O)(=O)c1cc(C(=O)Nc2ccc(Cl)cn2)ccc1C", "values": [{"measurement": "EC50", "setting": "[12]", "value": "2.3 µM (active)"}]}
{"smiles": "Cc1ccc(-c2nnn(C(C)C(=O)N3c4ccccc4CCc4ccccc43)n2)cc1", "note": "(configuration not stated)", "values": [{"measurement": "EC50", "setting": "[12]", "value": "7.47 µM (active)"}]}
